Test results reported in US20020051978A1, “Methods and compositions for the identification, assessment, prevention and therapy of human cancers” (priority 2000, published 2002).
Like-named read-outs stand apart in the source and are kept apart here.

Assays:
[1] = test system: 60 cancer cell lines (NCI 60 cancer cell line series); conditions: cited from earlier work
[2] = test system: 60 cancer cell lines (NCI 60 cancer cell line series); test: NCI-DTP in vitro cancer screen, sulforhodamine B (SRB) growth inhibition, 48 hour exposure; type: cell-based, human; set-up: key to sensitivity class Ovarian OVCAR-8 CL6005 / sensitivity class Ovarian SK-OV-3 CL6011 / sensitivity class Prostate DU-145 CL11003 / sensitivity class NSCLC NCI-H522 CL1003 / sensitivity class Ovarian IGROV1 CL6010 / sensitivity class Ovarian OVCAR-4 CL6002 / sensitivity class Prostate PC-3(I) CL11001 / sensitivity class Renal A498 CL9013 / sensitivity class Renal SN12C CL9008: sensitivity class: 1 = Low, 2 = Medium, 3 = High
Outline: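 Values come from the NCI-DTP screen database: -log GI50, the concentration giving 50% growth inhibition, derived from SRB cell-mass dose-response curves. Each line seeded at its own density, treated day 1 at five ten-fold-spaced doses in duplicate wells, stained after 48 h.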

COc1cc([C@@H]2c3cc4c(cc3[C@@H](O[C@@H]3O[C@@H]5CO[C@@H](c6cccs6)O[C@H]5[C@H](O)[C@H]3O)[C@H]3COC(=O)[C@H]23)OCO4)cc(OC)c1O [Teniposide]
2: classification of cell line as Low(1), Medium(2) or High(3) sensitivity to compound ([2]; Breast BT-549 (CL5013)) | classification of cell line as Low(1), Medium(2) or High(3) sensitivity to compound ([2]; Breast HS-578T CL5006) | classification of cell line as Low(1), Medium(2) or High(3) sensitivity to compound ([2]; Breast MDA-MB-231 CL5005) | classification of cell line as Low(1), Medium(2) or High(3) sensitivity to compound ([2]; Breast MDA-MB-435 (CL5011)) | classification of cell line as Low(1), Medium(2) or High(3) sensitivity to compound ([2]; Breast MDA-N CL5012) | classification of cell line as Low(1), Medium(2) or High(3) sensitivity to compound ([2]; Breast T-47D (CL5014)) | classification of cell line as Low(1), Medium(2) or High(3) sensitivity to compound ([2]; CNS SF-268 CL12014) | classification of cell line as Low(1), Medium(2) or High(3) sensitivity to compound ([2]; CNS SF-295 CL12015) | classification of cell line as Low(1), Medium(2) or High(3) sensitivity to compound ([2]; CNS SF-539 CL12016) | classification of cell line as Low(1), Medium(2) or High(3) sensitivity to compound ([2]; CNS SNB-19 (CL12002)) | classification of cell line as Low(1), Medium(2) or High(3) sensitivity to compound ([2]; CNS SNB-75(I) CL12005) | classification of cell line as Low(1), Medium(2) or High(3) sensitivity to compound ([2]; CNS U251(I) CL12009) | classification of cell line as Low(1), Medium(2) or High(3) sensitivity to compound ([2]; Colon COLO-250 CL4010) | classification of cell line as Low(1), Medium(2) or High(3) sensitivity to compound ([2]; Colon HCC-2998 (CL4002)) | classification of cell line as Low(1), Medium(2) or High(3) sensitivity to compound ([2]; Colon HCT-15 CL4015) | classification of cell line as Low(1), Medium(2) or High(3) sensitivity to compound ([2]; Colon HCT-116 (CL4003)) | classification of cell line as Low(1), Medium(2) or High(3) sensitivity to compound ([2]; Colon HT29(I) CL4001) | classification of cell line as Low(1), Medium(2) or High(3) sensitivity to compound ([2]; Colon KM12 (CL4017)) | classification of cell line as Low(1), Medium(2) or High(3) sensitivity to compound ([2]; Colon SW-620 (CL4009)) | classification of cell line as Low(1), Medium(2) or High(3) sensitivity to compound ([2]; Leukemia K562(I) CL7005) | classification of cell line as Low(1), Medium(2) or High(3) sensitivity to compound ([2]; Leukemia RPMI-8226(I) (CL7010)) | classification of cell line as Low(1), Medium(2) or High(3) sensitivity to compound ([2]; Melanoma LOX IMVI CL10001) | classification of cell line as Low(1), Medium(2) or High(3) sensitivity to compound ([2]; Melanoma M14 (CL10014)) | classification of cell line as Low(1), Medium(2) or High(3) sensitivity to compound ([2]; Melanoma MALME-3M CL10002) | sensitivity class NSCLC NCI-H23(I) CL1001 ([2]; cell line NSCLC NCI-H23(I), CL1001) | sensitivity class NSCLC NCI-H522 CL1003 ([2]; cell line NSCLC NCI-H522, CL1003) | sensitivity class Ovarian IGROV1 CL6010 ([2]; cell line Ovarian IGROV1, CL6010) | sensitivity class Ovarian OVCAR-3 CL6001 ([2]; cell line Ovarian OVCAR-3, CL6001) | sensitivity class Ovarian OVCAR-5 CL6003 ([2]; cell line Ovarian OVCAR-5, CL6003) | sensitivity class Ovarian OVCAR-8 CL6005 ([2]; cell line Ovarian OVCAR-8, CL6005) | sensitivity class Ovarian SK-OV-3 CL6011 ([2]; cell line Ovarian SK-OV-3, CL6011) | sensitivity class Prostate DU-145 CL11003 ([2]; cell line Prostate DU-145, CL11003) | sensitivity class Prostate PC-3(I) CL11001 ([2]; cell line Prostate PC-3(I), CL11001) | sensitivity class Renal 786-O CL9018 ([2]; cell line Renal 786-O, CL9018) | sensitivity class Renal A498 CL9013 ([2]; cell line Renal A498, CL9013) | sensitivity class Renal ACHN CL9023 ([2]; cell line Renal ACHN, CL9023) | sensitivity class Renal RXF-393 CL9016 ([2]; cell line Renal RXF-393, CL9016) | sensitivity class Renal SN12C CL9008 ([2]; cell line Renal SN12C, CL9008) | sensitivity class Renal TK10 CL9024 ([2]; cell line Renal TK10, CL9024)
7.4: -Log (GI50) ([1]; Breast MCF7(I) (CL5001))
5.8: -Log (GI50) ([1]; Colon HCT-15 CL4015) | -Log (GI50) ([1]; Colon HT29(I) CL4001) | -Log (GI50) ([1]; Ovarian IGROV1 CL6010) | -Log (GI50) ([1]; Ovarian OVCAR-3 CL6001) | -Log (GI50) ([1]; Ovarian OVCAR-5 CL6003) | -Log (GI50) ([1]; Renal TK10 CL9024)
6.7: -Log (GI50) ([1]; CNS SF-539 CL12016) | -Log (GI50) ([1]; Melanoma LOX IMVI CL10001)
7.9: -Log (GI50) ([1]; Leukemia SR CL7019)
7.3: -Log (GI50) ([1]; Leukemia CCRF-CEM(I) (CL7003)) | -Log (GI50) ([1]; Leukemia HL-60(I) (CL7008))
3: classification of cell line as Low(1), Medium(2) or High(3) sensitivity to compound ([2]; Breast MCF7(I) (CL5001)) | classification of cell line as Low(1), Medium(2) or High(3) sensitivity to compound ([2]; Leukemia CCRF-CEM(I) (CL7003)) | classification of cell line as Low(1), Medium(2) or High(3) sensitivity to compound ([2]; Leukemia HL-60(I) (CL7008)) | classification of cell line as Low(1), Medium(2) or High(3) sensitivity to compound ([2]; Leukemia MOLT-4 (CL7006)) | classification of cell line as Low(1), Medium(2) or High(3) sensitivity to compound ([2]; Leukemia SR CL7019) | sensitivity class NSCLC NCI-H460 CL1021 ([2]; cell line NSCLC NCI-H460, CL1021) | sensitivity class Renal CAKI-1 CL9015 ([2]; cell line Renal CAKI-1, CL9015)
6.1: -Log (GI50) ([1]; Colon HCT-116 (CL4003)) | -Log (GI50) ([1]; Colon KM12 (CL4017)) | -Log (GI50) ([1]; Leukemia K562(I) CL7005)
4.6: -Log (GI50) ([1]; Breast MCF7/ADRr (CL5002))
5.4: -Log (GI50) ([1]; Renal UO-31 CL9004)
6.5: -Log (GI50) ([1]; CNS SNB-19 (CL12002)) | -Log (GI50) ([1]; Prostate DU-145 CL11003) | -Log (GI50) ([1]; Renal 786-O CL9018) | -Log (GI50) ([1]; Renal SN12C CL9008)
5.5: -Log (GI50) ([1]; NSCLC NCI-H332M CL1017)
5.9: -Log (GI50) ([1]; Breast MDA-MB-435 (CL5011))
6.2: -Log (GI50) ([1]; Breast BT-549 (CL5013)) | -Log (GI50) ([1]; Colon HCC-2998 (CL4002)) | -Log (GI50) ([1]; Melanoma M14 (CL10014)) | -Log (GI50) ([1]; Melanoma MALME-3M CL10002)
6.8: -Log (GI50) ([1]; Breast T-47D (CL5014)) | -Log (GI50) ([1]; CNS SF-295 CL12015) | -Log (GI50) ([1]; CNS U251(I) CL12009) | -Log (GI50) ([1]; Leukemia RPMI-8226(I) (CL7010)) | -Log (GI50) ([1]; Renal ACHN CL9023)
6.3: -Log (GI50) ([1]; CNS SF-268 CL12014) | -Log (GI50) ([1]; CNS SNB-75(I) CL12005) | -Log (GI50) ([1]; Colon COLO-250 CL4010) | -Log (GI50) ([1]; NCSLC NCI-H522 CL1003) | -Log (GI50) ([1]; Ovarian OVCAR-8 CL6005) | -Log (GI50) ([1]; Renal RXF-393 CL9016)
7.8: -Log (GI50) ([1]; Leukemia MOLT-4 (CL7006)) | -Log (GI50) ([1]; NSCLC NCI-H460 CL1021)
6.6: -Log (GI50) ([1]; Colon SW-620 (CL4009))
7.1: -Log (GI50) ([1]; Renal CAKI-1 CL9015)
6.0: -Log (GI50) ([1]; Breast MDA-MB-231 CL5005) | -Log (GI50) ([1]; Breast MDA-N CL5012) | -Log (GI50) ([1]; Prostate PC-3(I) CL11001)
6.4: -Log (GI50) ([1]; Breast HS-578T CL5006) | -Log (GI50) ([1]; NSCLC NCI-H23(I) CL1001) | -Log (GI50) ([1]; Ovarian SK-OV-3 CL6011) | -Log (GI50) ([1]; Renal A498 CL9013)
1: classification of cell line as Low(1), Medium(2) or High(3) sensitivity to compound ([2]; Breast MCF7/ADRr (CL5002)) | sensitivity class NSCLC NCI-H332M CL1017 ([2]; cell line NSCLC NCI-H332M, CL1017) | sensitivity class Ovarian OVCAR-4 CL6002 ([2]; cell line Ovarian OVCAR-4, CL6002) | sensitivity class Renal UO-31 CL9004 ([2]; cell line Renal UO-31, CL9004)
5.3: -Log (GI50) ([1]; Ovarian OVCAR-4 CL6002)
